Data on 24 compounds can be found in patent US20260258032A1, “TYROSINE KINASE 2 INHIBITORS AND USES THEREOF” (BIOGEN MA INC., priority 2022, published 2026).

SMILES strings stand for the structures. Counter-ions that a name gives are not always drawn.

The target in one assay is T1, JH2 domain of human Tyk2 (Homo sapiens, UniProt P29597).
T1 construct: 10×His-tagged TYK2 JH2 domain (amino acid 575-876)
The assay is described as follows: JH2 biochemical assay (TR-FRET probe displacement). The class given is binding. The method in brief:
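10×His-tagged human TYK2 JH2 (aa 575-876, 2 nM) incubated 60 min with 2 nM fluorescent probe, 0.1 nM Tb anti-His antibody and compound (10-point 3-fold series from […] top). TR-FRET 520/495 nm ratio, falling with probe displacement, normalized and fitted to a 4-parameter logistic for IC50.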

Assay [1] relates to Tyk2 kinase activity on STAT4. In words: pSTAT4 cell assay (MSD, NK92 cells). Format: cell-based. Conditions: compounds 1 hr. The method in brief: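 Serum-starved NK92 cells, which natively express Tyk2 and STAT4, were pretreated for 1 h with a 10-point 4-fold dilution series from 10 μM. They were then stimulated with 30 ng/mL IL2 for 15 min. Phospho-STAT in lysates was quantified by MSD with anti-STAT4 antibodies, and IC50 was obtained from 4-parameter logistic fits.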

Setting [2] is: TR-FRET probe displacement, JH2 domain of human Tyk2.

T1 sequence (P29597 575-876): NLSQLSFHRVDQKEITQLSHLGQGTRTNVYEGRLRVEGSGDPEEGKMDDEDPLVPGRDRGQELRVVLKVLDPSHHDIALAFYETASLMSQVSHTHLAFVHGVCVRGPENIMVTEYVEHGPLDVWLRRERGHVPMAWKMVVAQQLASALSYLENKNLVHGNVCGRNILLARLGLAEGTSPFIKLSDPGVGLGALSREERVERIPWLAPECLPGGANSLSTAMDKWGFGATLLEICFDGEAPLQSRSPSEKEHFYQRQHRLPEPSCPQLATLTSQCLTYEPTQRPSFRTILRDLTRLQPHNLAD

For orientation: IC50 means the midpoint of a concentration-inhibition curve. A high value points to a need for much substance. With `CC(=O)Nc1cc2c(cn1)C1(CC1)CN2c1cc(C)cc(-c2cnn(C)c2)n1` [Example 257, N-(1′-(4-methyl-6-(1-methyl-1H-pyrazol-4-yl)pyridin-2-yl)-1′,2′-dihydrospiro[cyclopropane-1,3′-pyrrolo[3,2-c]pyridin]-6′-yl)acetamide trifluoroacetate], the IC50 was at most 10 nM on JH2 domain of human Tyk2 (JH2 biochemical assay) and 100 to 1000 nM in assay [1] (stimulated 15 minutes).
The like results for `CC(=O)Nc1cc2c(cn1)C1(CC1)CN2c1nc(C2CCOC2)c(C)s1` (stereo not drawn) [Example 82, N-(1′-(5-methyl-4-(tetrahydrofuran-3-yl)thiazol-2-yl)-1′,2′-dihydrospiro[cyclopropane-1,3′-pyrrolo[3,2-c]pyridin]-6′-yl)acetamide trifluoroacetate] were, in that order, at most 10 nM and 100 to 1000 nM.
The like results for `CC(=O)Nc1cc2c(cn1)C1(CC1)CN2c1cc(C)cc(OC(C)C)n1` [Example 334, N-(1′-(6-isopropoxy-4-methylpyridin-2-yl)-1′,2′-dihydrospiro[cyclopropane-1,3′-pyrrolo[3,2-c]pyridin]-6′-yl)acetamide trifluoroacetate] were, in that order, 10 to 100 nM and at least 1000 nM.
The like results for `CC(=O)Nc1cc2c(cn1)C1(CC1)CN2c1cc(OC2CCN(C)C2)nc(C(C)(F)F)n1` (stereo not drawn) [Example 359, N-(1′-(2-(1,1-difluoroethyl)-6-((1-methylpyrrolidin-3-yl)oxy)pyrimidin-4-yl)-1′,2′-dihydrospiro[cyclopropane-1,3′-pyrrolo[3,2-c]pyridin]-6′-yl)acetamide trifluoroacetate] were, in that order, 10 to 100 nM and at least 1000 nM.
Consider `CCCCCc1cc(N2CC3(CC3)c3cnc(NC(C)=O)cc32)nc(C(C)(F)F)n1` [Example 328, N-(1′-(2-(1,1-difluoroethyl)-6-pentylpyrimidin-4-yl)-1′,2′-dihydrospiro[cyclopropane-1,3′-pyrrolo[3,2-c]pyridin]-6′-yl)acetamide], for which the values for the IC50 (on JH2 domain of human Tyk2 (JH2 biochemical assay); in assay [1] (stimulated 15 minutes)) were at most 10 nM and 10 to 100 nM, respectively.
Taken in the same sequence, the figures for `CC(=O)Nc1cc2c(cn1)C1(CC1)CN2c1cc(C(C)O)nc(C(C)(F)F)n1` (stereo not drawn) [Example 293, N-(1′-(2-(1,1-difluoroethyl)-6-(1-hydroxyethyl)pyrimidin-4-yl)-1′,2′-dihydrospiro[cyclopropane-1,3′-pyrrolo[3,2-c]pyridin]-6′-yl)acetamide] were at most 10 nM and 100 to 1000 nM.
As for `CCOC(=O)c1cc(N2CC3(CC3)c3cnc(NC(C)=O)cc32)nc(C(C)(F)F)n1` [Example 291, Ethyl 6-(6′-acetamidospiro[cyclopropane-1,3′-pyrrolo[3,2-c]pyridin]-1′(2′H)-yl)-2-(1,1-difluoroethyl)pyrimidine-4-carboxylate], the IC50 on JH2 domain of human Tyk2 (JH2 biochemical assay) was at most 10 nM; in assay [1] (stimulated 15 minutes), 100 to 1000 nM.
The like results for `CC(=O)Nc1cc2c(cn1)C1(CC1)CN2c1cc(C)cc(N2CCC(O)(C(F)(F)F)C2)n1` (stereo not drawn) [Example 186, N-(1′-(6-(3-hydroxy-3-(trifluoromethyl)pyrrolidin-1-yl)-4-methylpyridin-2-yl)-1′,2′-dihydrospiro[cyclopropane-1,3′-pyrrolo[3,2-c]pyridin]-6′-yl)acetamide] were, in that order, 100 to 1000 nM and at least 1000 nM.
The like results for `CC(=O)Nc1cc2c(cn1)C1(CC1)CN2c1cc(C)nc(N2CC(S(C)(=O)=O)C2)n1` [Example 224, N-(1′-(6-methyl-2-(3-(methylsulfonyl)azetidin-1-yl)pyrimidin-4-yl)-1′,2′-dihydrospiro[cyclopropane-1,3′-pyrrolo[3,2-c]pyridin]-6′-yl)acetamide] were, in that order, 100 to 1000 nM and at least 1000 nM.
Taken in the same sequence, the figures for `COc1ccc(N2CC3(CC3)c3cnc(NC(C)=O)cc32)nc1C(C)(F)F` [Example 8, N-(1′-(6-(1,1-difluoroethyl)-5-methoxypyridin-2-yl)-1′,2′-dihydrospiro[cyclopropane-1,3′-pyrrolo[3,2-c]pyridin]-6′-yl)acetamide] were at most 10 nM and 100 to 1000 nM.
Turning to `CC(=O)Nc1cc2c(cn1)C1(CC1)CN2c1cc(C)nc(OC2CC(C#N)C2)n1` (stereo not drawn) [Example 375, N-(1′-(2-(3-cyanocyclobutoxy)-6-methylpyrimidin-4-yl)-1′,2′-dihydrospiro[cyclopropane-1,3′-pyrrolo[3,2-c]pyridin]-6′-yl)acetamide], the IC50 at JH2 domain of human Tyk2 (setting [2]) was 100 to 1000 nM; in assay [1] (then stimulated 15 minutes) it was at least 1000 nM.
For the compound `CC(=O)Nc1cc2c(cn1)C1(CC1)CN2c1cc(-c2ccc(C)nc2)nc(C(C)(F)F)n1` [Example 242, N-(1′-(2-(1,1-difluoroethyl)-6-(6-methylpyridin-3-yl)pyrimidin-4-yl)-1′,2′-dihydrospiro[cyclopropane-1,3′-pyrrolo[3,2-c]pyridin]-6′-yl)acetamide], the results for the IC50 (on JH2 domain of human Tyk2 (JH2 biochemical assay); in assay [1] (stimulated 15 minutes)) were at most 10 nM and 10 to 100 nM, respectively.
The like results for `CC(=O)Nc1cc2c(cn1)C1(CC1)CN2c1cc(C)cc(N2CCC(N(C)C)C2)n1` (stereo not drawn) [Example 192, N-(1′-(6-(3-(dimethylamino)pyrrolidin-1-yl)-4-methylpyridin-2-yl)-1′,2′-dihydrospiro[cyclopropane-1,3′-pyrrolo[3,2-c]pyridin]-6′-yl)acetamide trifluoroacetate] were, in that order, 100 to 1000 nM and at least 1000 nM.
The like results for `CC(=O)Nc1cc2c(cn1)C1(CC1)CN2c1cc(NC2CCC2)nc(C(C)(F)F)n1` [Example 157, N-(1′-(6-(cyclobutylamino)-2-(1,1-difluoroethyl)pyrimidin-4-yl)-1′,2′-dihydrospiro[cyclopropane-1,3′-pyrrolo[3,2-c]pyridin]-6′-yl)acetamide trifluoroacetate] were, in that order, at most 10 nM and at most 10 nM.
The like results for `CC(=O)Nc1cc2c(cn1)C1(CC1)CN2c1cc(-c2ncn(C)n2)nc(C(C)(F)F)n1` [Example 300, N-(1′-(2-(1,1-difluoroethyl)-6-(1-methyl-1H-1,2,4-triazol-3-yl)pyrimidin-4-yl)-1′,2′-dihydrospiro[cyclopropane-1,3′-pyrrolo[3,2-c]pyridin]-6′-yl)acetamide] were, in that order, at most 10 nM and 100 to 1000 nM.
As to `CC(=O)Nc1cc2c(cn1)C1(CC1)CN2c1cc(CC#N)nc(C(C)(F)F)n1` [Example 303, N-(1′-(6-(cyanomethyl)-2-(1,1-difluoroethyl)pyrimidin-4-yl)-1′,2′-dihydrospiro[cyclopropane-1,3′-pyrrolo[3,2-c]pyridin]-6′-yl)acetamide], the IC50 was 10 to 100 nM on JH2 domain of human Tyk2 (JH2 biochemical assay) and at least 1000 nM in assay [1] (stimulated 15 minutes).
Taken in the same sequence, the figures for `CC(=O)Nc1cc2c(cn1)C1(CC1)CN2c1cc(C)nc(OC2CC(F)(F)C2)n1` [Example 363, N-(1′-(2-(3,3-difluorocyclobutoxy)-6-methylpyrimidin-4-yl)-1′,2′-dihydrospiro[cyclopropane-1,3′-pyrrolo[3,2-c]pyridin]-6′-yl)acetamide] were 100 to 1000 nM and at least 1000 nM.
The like results for `CCOc1cc(C)cc(N2CC3(CC3)c3cnc(NC(C)=O)cc32)n1` [Example 335, N-(1′-(6-ethoxy-4-methylpyridin-2-yl)-1′,2′-dihydrospiro[cyclopropane-1,3′-pyrrolo[3,2-c]pyridin]-6′-yl)acetamide trifluoroacetate] were, in that order, 10 to 100 nM and at least 1000 nM.
Taken in the same sequence, the figures for `CC(=O)Nc1cc2c(cn1)C1(CC1)CN2c1cc(C)cc(N2CC3CCNC3C2)n1` (stereo not drawn) [Example 210, N-(1′-(6-(hexahydropyrrolo[3,4-b]pyrrol-5(1H)-yl)-4-methylpyridin-2-yl)-1′,2′-dihydrospiro[cyclopropane-1,3′-pyrrolo[3,2-c]pyridin]-6′-yl)acetamide trifluoroacetate] were 100 to 1000 nM and at least 1000 nM.
`CC(=O)Nc1cc2c(cn1)C1(CC1)CN2c1cc(C)nc(N2CC(C#N)(C(F)F)C2)n1` [Example 223, N-(1′-(2-(3-cyano-3-(difluoromethyl)azetidin-1-yl)-6-methylpyrimidin-4-yl)-1′,2′-dihydrospiro[cyclopropane-1,3′-pyrrolo[3,2-c]pyridin]-6′-yl)acetamide trifluoroacetate]: the IC50 on JH2 domain of human Tyk2 (JH2 biochemical assay) is 10 to 100 nM; in assay [1] (stimulated 15 minutes), at least 1000 nM.
Consider `CC(=O)Nc1cc2c(cn1)C1(CC1)CN2c1cc(C)nc(N2CC(CC(C)C)C2)n1` [Example 410, N-(1′-(2-(3-isobutylazetidin-1-yl)-6-methylpyrimidin-4-yl)-1′,2′-dihydrospiro[cyclopropane-1,3′-pyrrolo[3,2-c]pyridin]-6′-yl)acetamide trifluoroacetate], for which the 50% inhibitory concentration (IC50) was at least 1000 nM at JH2 domain of human Tyk2 (setting [2]) and 100 to 1000 nM in assay [1] (then stimulated 15 minutes).
Turning to `CC(=O)Nc1cc2c(cn1)C1(CC1)CN2c1cc(C)nc(C(C)(C)F)n1` [Example 312, N-(1′-(2-(2-fluoropropan-2-yl)-6-methylpyrimidin-4-yl)-1′,2′-dihydrospiro[cyclopropane-1,3′-pyrrolo[3,2-c]pyridin]-6′-yl)acetamide], the IC50 at JH2 domain of human Tyk2 (JH2 biochemical assay) is at most 10 nM; in assay [1] (stimulated 15 minutes) it was 10 to 100 nM.
Taken in the same sequence, the figures for `COC1CCCN(c2cc(C)cc(N3CC4(CC4)c4cnc(NC(C)=O)cc43)n2)C1` (stereo not drawn) [Example 188, N-(1′-(6-(3-methoxypiperidin-1-yl)-4-methylpyridin-2-yl)-1′,2′-dihydrospiro[cyclopropane-1,3′-pyrrolo[3,2-c]pyridin]-6′-yl)acetamide] were 100 to 1000 nM and at least 1000 nM.
The like results for `CC(=O)Nc1cc2c(cn1)C1(CC1)CN2c1cc(C)nc(C2CC2C)n1` (stereo not drawn) [Example 123, N-(1′-(6-methyl-2-(2-methylcyclopropyl)pyrimidin-4-yl)-1′,2′-dihydrospiro[cyclopropane-1,3′-pyrrolo[3,2-c]pyridin]-6′-yl)acetamide] were, in that order, at most 10 nM and 100 to 1000 nM.
